Experimental findings from patent US8754242B2, “Herbicides” (Syngenta Crop Protection LLC, priority 2007, dated 2014) are described below.

What all share (assay type): in vivo
The subject of test [1] is Setaria faberi (SETFA). In words: Test Example 1 post-emergence herbicidal activity. Particulars: 360 h, rate 125 g/ha, evaluated 15 days later, read-out: Post-emergence activity SETFA (100=total damage to plant; 0=no damage to plant). The procedure, abridged: (§1)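 Sow in pots of standard soil → grow 1 day (pre-emergence) or 10 days (post-emergence) in glasshouse → spray aqueous formulated compound → grow on under optimum conditions → score damage 0–100 at day 20 (pre) or day 15 (post).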

The subject of test [2] is Alopecurus myosuroides (ALOMY). Briefly: Test Example 1 post-emergence herbicidal activity. Particulars: 360 h, rate 125 g/ha, evaluated 15 days later, read-out: Post-emergence activity ALOMY (100=total damage to plant; 0=no damage to plant). The procedure, abridged: as §1
The test system of test [3] is Avena fatua (AVEFA). Briefly: Test Example 1 post-emergence herbicidal activity. Particulars: 360 h, rate 125 g/ha, evaluated 15 days later, read-out: Post-emergence activity AVEFA (100=total damage to plant; 0=no damage to plant). The procedure, abridged:
as §1

Test [4] concerns Lolium perenne (LOLPE). In words: Test Example 1 post-emergence herbicidal activity. Conditions: 360 h, rate 125 g/ha, evaluated 15 days later, read-out: Post-emergence activity LOLPE (100=total damage to plant; 0=no damage to plant). The procedure, abridged: as §1
Test [5] has as its system Echinochloa crus-galli (ECHCG). Briefly: Test Example 1 post-emergence herbicidal activity. Particulars: 360 h, rate 125 g/ha, evaluated 15 days later, read-out: Post-emergence activity ECHCG (100=total damage to plant; 0=no damage to plant). The procedure, abridged:
as §1

The test system of test [6] is Digitaria sanguinalis (DIGSA). Briefly: Test Example 1 post-emergence herbicidal activity. Particulars: 360 h, rate 125 g/ha, evaluated 15 days later, read-out: Post-emergence activity DIGSA (100=total damage to plant; 0=no damage to plant). Put shortly:
as §1

Test [7] concerns Setaria faberi (SETFA). Briefly: Test Example 1 pre-emergence herbicidal activity. Particulars: Setaria faberi, 480 h, rate 250 g/ha, evaluated 20 days later, read-out: Pre-emergence activity SETFA (100=total damage to plant; 0=no damage to plant). Put shortly: as §1
For test [8], the system named is Alopecurus myosuroides (ALOMY). In words: Test Example 1 pre-emergence herbicidal activity. Conditions: Alopecurus myosuroides, 480 h, rate 250 g/ha, evaluated 20 days later, read-out: Pre-emergence activity ALOMY (100=total damage to plant; 0=no damage to plant). Put shortly:
as §1

Test [9] has as its system Avena fatua (AVEFA). In words: Test Example 1 pre-emergence herbicidal activity. Conditions: Avena fatua, 480 h, rate 250 g/ha, evaluated 20 days later, read-out: Pre-emergence activity AVEFA (100=total damage to plant; 0=no damage to plant). The procedure, abridged:
as §1

Test [10] deals with Lolium perenne (LOLPE). In words: Test Example 1 pre-emergence herbicidal activity. Conditions: Lolium perenne, 480 h, rate 250 g/ha, evaluated 20 days later, read-out: Pre-emergence activity LOLPE (100=total damage to plant; 0=no damage to plant). The procedure, abridged: as §1
Test [11] concerns Echinochloa crus-galli (ECHCG). Briefly: Test Example 1 pre-emergence herbicidal activity. Conditions: Echinochloa crus-galli, 480 h, rate 250 g/ha, evaluated 20 days later, read-out: Pre-emergence activity ECHCG (100=total damage to plant; 0=no damage to plant). Put shortly: as §1
Test [12] has as its system Digitaria sanguinalis (DIGSA). In words: Test Example 1 pre-emergence herbicidal activity. Conditions: Digitaria sanguinalis, 480 h, rate 250 g/ha, evaluated 20 days later, read-out: Pre-emergence activity DIGSA (100=total damage to plant; 0=no damage to plant). Put shortly: as §1

Regarding `Cc1cc(C)c(C2=C(O)[C@@H]3[C@@H]4O[C@@H](C[C@H]4c4ccc(F)cc4)[C@@H]3C2=O)c(C)c1` (racemic) [Example T70], the pest or weed control at 125 g/ha in [1] turned out to be 70%; in test [2], 90%; in test [3], 70%; in test [4], 70%; in test [5] it was 80%; in test [6], 70%. The pest or weed control at 250 g/ha in test [7] was 90%; in test [8] it was 80%; in test [9], 50%; in test [10], 100%; in [11], 100%; in test [12] it was 90%.
Regarding `Cc1ccc([C@@H]2C[C@@H]3O[C@H]2[C@H]2C(O)=C(c4c(C)cc(C)cc4C)C(=O)[C@H]23)cc1` (racemic) [Example T71], the pest or weed control at 125 g/ha came out at 50% in test [1]; 50% in test [2]; 10% in test [3]; 20% in test [4]; 60% in test [5]; 70% in [6]. The pest or weed control at 250 g/ha was 20% in [7]; 30% in test [8]; 0% in test [9]; 0% in [10]; 50% in test [11]; 50% in test [12].
Turning to `C=C[C@@H]1C[C@@H]2O[C@H]1[C@H]1C(O)=C(c3c(C)cc(C)cc3C)C(=O)[C@H]12` (racemic) [Example T99], the pest or weed control at 125 g/ha came out at 70% in test [1]; 80% in test [2]; 30% in [3]; 10% in [4]; 100% in [5]; 60% in [6]. The pest or weed control at 250 g/ha was found to be 80% in test [7]; 80% in test [8]; 60% in test [9]; 100% in [10]; 100% in test [11]; 80% in [12].
As to `Cc1cc(C)c(C2=C(O)[C@@H]3[C@@H]4O[C@@H](C[C@H]4c4ccc(C(F)(F)F)nc4)[C@@H]3C2=O)c(C)c1` (racemic) [Example T128], the pest or weed control at 125 g/ha in [1] is 100%; in [2], 80%; in test [3] it was 90%; in test [4], 80%; in [5] it was 100%; in test [6] it was 100%. Also, the pest or weed control at 250 g/ha in [7] was found to be 100%; in test [8] it was 70%; in [9], 70%; in test [10], 90%; in test [11] it was 100%; in test [12], 100%.
In the case of `CCc1cc(C)cc(CC)c1C1=C(O)[C@@H]2[C@@H]3O[C@@H](C[C@H]3c3ccc(OC(F)(F)F)cc3)[C@@H]2C1=O` (racemic) [Example T159], the pest or weed control at 125 g/ha was 100% in test [1]; 90% in test [2]; 70% in test [3]; 40% in test [4]; 100% in test [5]; 100% in test [6]. In addition, the pest or weed control at 250 g/ha in test [7] was determined as 70%; in [8], 50%; in test [9] it was 60%; in [10], 40%; in test [11] it was 70%; in [12], 70%.
`CCc1cc(C)cc(CC)c1C1=C(O)[C@@H]2[C@@H]3O[C@@H](C[C@H]3c3ccc(Cl)cc3C)[C@@H]2C1=O` (racemic) [Example T165]: the pest or weed control at 125 g/ha came to 90% in test [1]; 80% in test [2]; 30% in test [3]; 80% in test [4]; 100% in test [5]; 70% in test [6]. The pest or weed control at 250 g/ha came out at 70% in [7]; 70% in test [8]; 20% in test [9]; 80% in test [10]; 80% in test [11]; 50% in test [12].
As to `CCc1cc(C)cc(CC)c1C1=C(O)[C@@H]2[C@@H]3O[C@@H](C[C@H]3c3ccccc3F)[C@@H]2C1=O` (racemic) [Example T170], the pest or weed control at 125 g/ha in test [1] came to 40%; in [2], 80%; in test [3], 70%; in test [4] it was 80%; in test [5] it was 100%; in test [6], 40%. Further, the pest or weed control at 250 g/ha in test [7] stood at 70%; in [8], 80%; in test [9], 40%; in test [10], 90%; in [11], 80%; in [12], 70%.
Regarding `CCc1cc(C)cc(CC)c1C1=C(O)[C@@H]2[C@@H]3O[C@@H](C[C@H]3c3cccc(C(C)=O)c3)[C@@H]2C1=O` (racemic) [Example T174], the pest or weed control at 125 g/ha in [1] was found to be 50%; in [2], 70%; in [3], 70%; in test [4], 40%; in [5], 80%; in test [6] it was 70%. The pest or weed control at 250 g/ha worked out at 0% in test [7]; 30% in test [8]; 30% in test [9]; 30% in test [10]; 0% in test [11]; 40% in test [12].
With `CCc1cc(C)cc(CC)c1C1=C(O)[C@@H]2[C@@H]3O[C@@H](C[C@H]3c3ccc(F)c(F)c3)[C@@H]2C1=O` (racemic) [Example T178], the pest or weed control at 125 g/ha in test [1] was 100%; in test [2] it was 100%; in test [3], 90%; in test [4], 90%; in test [5] it was 100%; in test [6], 100%. For the same compound, the pest or weed control at 250 g/ha is 100% in test [7]; 70% in [8]; 40% in [9]; 80% in [10]; 100% in test [11]; 80% in test [12].
On to `CCc1cc(C)cc(CC)c1C1=C(O)[C@@H]2[C@@H]3O[C@@H](C[C@H]3c3ccc(C)cc3)[C@@H]2C1=O` (racemic) [Example T180], for which the pest or weed control at 125 g/ha in test [1] was 100%; in [2], 90%; in test [3] it was 70%; in [4] it was 70%; in test [5], 100%; in test [6], 90%. For the same compound, the pest or weed control at 250 g/ha came out at 40% in test [7]; 30% in test [8]; 20% in [9]; 70% in test [10]; 60% in test [11]; 80% in test [12].
